Structures can show the parent of a compound that is named as a salt.
Biological target: T1, recombinant human CXCR2 (Homo sapiens, UniProt P25025)
T1 construct: TEV protease site; Gal4-VP16 transcription factor
T1 sequence (P25025 1-360): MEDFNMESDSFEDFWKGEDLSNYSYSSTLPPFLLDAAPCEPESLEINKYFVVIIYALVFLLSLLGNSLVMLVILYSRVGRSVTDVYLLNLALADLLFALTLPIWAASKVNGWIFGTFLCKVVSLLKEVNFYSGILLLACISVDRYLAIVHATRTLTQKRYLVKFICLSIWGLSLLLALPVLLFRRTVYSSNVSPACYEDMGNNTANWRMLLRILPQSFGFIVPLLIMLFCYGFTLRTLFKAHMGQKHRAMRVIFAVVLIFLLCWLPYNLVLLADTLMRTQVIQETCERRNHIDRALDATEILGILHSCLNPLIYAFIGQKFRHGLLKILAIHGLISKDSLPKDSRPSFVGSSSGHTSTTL
Assay: CXCR2 Tango assay
Assay type: cell-based
Conditions: mean pIC50 of multiple test results; stimulated with 80 nM hCXCL1; reporter gene blue/green emission ratio; read-out: pIC50 (CXCR2 Tango assay) (converted)
Description: The assay measures ligand-induced activation of the receptor CXCR2 in a stable cell line containing the recombinant human CXCR2 linked to a TEV protease site and a Gal4-VP16 transcription factor (Invitrogen). Ligand binding to the receptor results in the recruitment of arrestin proteins (tagged with protease) to the receptor and triggers the release of a tethered transcription factor. The transcription factor enters the nucleus and activates the transcription of the reporter gene. The ability of a compound to inhibit CXCR2 activation is indirectly assessed by measuring the reporter gene activity.
A vial of cryopreserved cells was removed from liquid nitrogen and rapidly thawed in a water bath at 37° C. with gentle agitation. The contents of the vial were transferred drop-wise into Thawing Medium in a sterile 15 ml conical tube and then centrifuged at 1000 rpm for 4-5 min. Then the cell pellets were resuspended in Assay Medium at a density of ˜200,000 cells/ml. All test compounds were dissolved in DMSO at a concentration of 10 mM and were prepared in 100% DMSO to provide 10 point dose response curves. A reference CXCR2 antagonist was added to wells in row 2, columns 1-5 & 7-11. Exemplified compounds 1-4, 7, 8-10, 13-22, 24-26, 28-30, 32, 33, 36, 37, 40, 42-44. 95-110, 115-118, 120, 121, 125, 126, 129-134, 137, 138, 140, 142, 147-149, 153-157, 159-162, 163-166, 168, 170, 172, 174-180 and 202 were tested using the CXCR2 antagonist sodium 3-chloro-6-(3-(2,3-dichlorophenyl)ureido)-2-sulfamoylphenolate as reference compound (Reference Compound 1) (published International patent application WO2002/079122). […] Test compounds were added to wells in row 2, columns 13-17 & 19-23 and rows 3-15, columns 1-5 & 7-11/13-17 & 19-23 (columns 6 and 18 as positive controls and un-stimulated controls respectively; columns 12 and 24 as cell-free control). Compounds in solution were added to the assay plate (Greiner 781090) using an Echo (Labcyte) concentration-response program (50 nl/well). The cell-free, un-stimulated and positive controls were loaded with 50 nl/well pure DMSO to ensure that the DMSO concentration was constant across the plate for all assays. Using Multi-drop Combi (Thermo) with standard cassette, 50 μl of Assay Medium was added to each well in the cell-free controls (columns 12 and 24); 50 μl of the cell suspension without hCXCL1 (a CXCR2 ligand) was added to each well in column 18 of the plate (˜10,000 cells per well); and 50 μl of the cell suspension with 80 nM hCXCL1 was added to the rest of wells of the plate (˜10,000 cells per well). The cells were incubated overnight at 37° C./5% CO2. 10 μl of 6× substrate mixture (LiveBLAzer™-FRET B/G substrate (CCF4-AM) Cat # K1096 from Invitrogen, Inc.) was added to each well using Multi-drop Combi (Thermo) with small-tube cassette and the plates incubated at room temperature for 2 h in the dark. The plate was finally read on EnVision using one excitation channel (409 nm) and two emission channels (460 nm and 530 nm).
The blue/green emission ratio (460 nm/530 nm) was calculated for each well, by dividing the background-subtracted Blue emission values by the background-subtracted Green emission values. The dose response curve was based on sigmoidal dose-response model. All ratio data was normalized based upon the maximum emission ratio of positive control (hCXCL1) and minimum emission ratio of negative control (DMSO) on each plate. The intrinsic activity (IA) of each compound would be the normalized percentage of its maximum response after curve fitting.
All exemplified compounds (except for Compounds 203 and 204) were tested in the CXCR2 Tango assay or a similar assay described above. The data mentioned below represents a mean pIC 50 value of multiple test results. It is understood that the data illustrated below may have reasonable variation depending on the specific conditions and procedures used by the person conducting the testing.

In the case of `CC1=C(F)CCC1NC(=O)Nc1ccc(Cl)c(S(=O)(=O)C(C)C)c1O` (centres unmarked) [Compound 17, 1-(4-chloro-2-hydroxy-3-(isopropylsulfonyl)phenyl)-3-(3-fluoro-2-methylcyclopent-2-en-1-yl)urea], the IC50 was ≤ 10 nM.

`C[C@@]1(S(=O)(=O)c2c(Cl)ccc(NC(=O)N[C@@H]3CCC=C3Cl)c2O)CCOC1` (single isomer, unassigned) [Compound 198] was tested, and the IC50 was ≤ 10 nM.

`CC1=CCCC1NC(=O)Nc1ccc(Cl)c(S(=O)(=O)[C@H]2C[C@H](CN(C)C)C2)c1O` (some centres unmarked) [Compound 131, 1-(4-chloro-3-(((1r,3r)-3-((dimethylamino)methyl)cyclobutyl)sulfonyl)-2-hydroxyphenyl)-3-(2-methylcyclopent-2-en-1-yl)urea, trifluoroacetic acid salt] was tested, and the IC50 was ≤ 10 nM.

For `CC1=CCC[C@H]1NC(=O)Nc1ccc(Cl)c(S(=O)(=O)N2CCCCC2)c1O` [Compound 91, (R)-1-(4-chloro-2-hydroxy-3-(piperidin-1-ylsulfonyl)phenyl)-3-(2-methylcyclopent-2-en-1-yl)urea trifluoroacetic acid salt], the IC50 was ≤ 1 nM.

`CCO[C@H]1C[C@@H](S(=O)(=O)c2c(Cl)ccc(NC(=O)N[C@@H]3CCC=C3Cl)c2O)C1` [Compound 125, 1-(4-chloro-3-(((1s,3s)-3-ethoxycyclobutyl)sulfonyl)-2-hydroxyphenyl)-3-(2-chlorocyclopent-2-en-1-yl)urea] was tested, and the IC50 was ≤ 10 nM.

`CN(C)[C@H]1C[C@H](S(=O)(=O)c2c(Cl)ccc(NC(=O)NC3CCC=C3Cl)c2O)C1` (stereo partly drawn) [Compound 134, 1-(4-chloro-3-((trans-3-(dimethylamino)cyclobutyl)sulfonyl)-2-hydroxyphenyl)-3-(2-chlorocyclopent-2-en-1-yl)urea] was tested, and the IC50 was ≤ 10 nM.

In the case of `CC1=CCCC1NC(=O)Nc1ccc(Cl)c(S(=O)(=O)N2CCC(F)(F)CC2)c1O` (centres unmarked) [Compound 115, 1-(4-chloro-3-((4,4-difluoropiperidin-1-yl)sulfonyl)-2-hydroxyphenyl)-3-(2-methylcyclopent-2-en-1-yl)urea], the IC50 was ≤ 10 nM.

For `CC1=CCC[C@H]1NC(=O)Nc1ccc(Cl)c(S(=O)(=O)C(C)(C)C2COC2)c1O` [Compound 61, (R)-1-(4-chloro-2-hydroxy-3-((2-(oxetan-3-yl)propan-2-yl)sulfonyl)phenyl)-3-(2-methylcyclopent-2-en-1-yl)urea], the IC50 was ≤ 1 nM.

For `CC1=CCCC1NC(=O)Nc1ccc(Cl)c(S(=O)(=O)C(C)(F)F)c1O` (centres unmarked) [Compound 106, 1-(4-chloro-3-((1,1-difluoroethyl)sulfonyl)-2-hydroxyphenyl)-3-(2-methylcyclopent-2-en-1-yl)urea], the IC50 was ≤ 1 nM.

`CN(C)C[C@H]1C[C@@H](S(=O)(=O)c2c(Cl)ccc(NC(=O)NC3CCC=C3Cl)c2O)C1` (stereo partly drawn) [Compound 132, 1-(4-chloro-3-((cis-3-((dimethylamino)methyl)cyclobutyl)sulfonyl)-2-hydroxyphenyl)-3-(2-chlorocyclopent-2-en-1-yl)urea, trifluoroacetic acid salt] was tested, and the IC50 was ≤ 10 nM.

`O=C(Nc1ccc(Cl)c(S(=O)(=O)C2CCOCC2)c1O)NC1C=CCC1` (centres unmarked) [Compound 176, 1-(4-chloro-2-hydroxy-3-((tetrahydro-2H-pyran-4-yl)sulfonyl)phenyl)-3-(cyclopent-2-en-1-yl)urea] was tested, and the IC50 was ≤ 10 nM.

For `O=C(Nc1ccc(Cl)c(S(=O)(=O)[C@H]2CCOC2)c1O)N[C@@H]1CCC=C1Cl` [Compound 166, 1-(4-chloro-2-hydroxy-3-(((S)-tetrahydrofuran-3-yl)sulfonyl)phenyl)-3-((R)-2-chlorocyclopent-2-en-1-yl)urea], the IC50 was ≤ 1 nM.

With `[2H]C([2H])([2H])C1(S(=O)(=O)c2c(Cl)ccc(NC(=O)N[C@@H]3CCC=C3Cl)c2O)CCOC1` (stereo partly drawn) [Compound 183, 1-(4-chloro-2-hydroxy-3-((3-(d3-methyl)tetrahydro-furan-3-yl)sulfonyl)phenyl)-3-((R)-2-chlorocyclopent-2-en-1-yl)urea] the IC50 was ≤ 10 nM.

In the case of `CCO[C@H]1C[C@@H](S(=O)(=O)c2c(Cl)ccc(NC(=O)N[C@@H]3CCC=C3C)c2O)C1` [Compound 124, (R)-1-(4-chloro-3-((cis-3-ethoxycyclobutyl)sulfonyl)-2-hydroxyphenyl)-3-(2-methylcyclopent-2-en-1-yl)urea], the IC50 was ≤ 1 nM.

For `O=C(Nc1ccc(Cl)c(S(=O)(=O)[C@H]2CCOC2)c1O)NC1CCC=C1Cl` (stereo partly drawn) [Compound 179, 1-(4-chloro-2-hydroxy-3-(((S)-tetrahydrofuran-3-yl)sulfonyl)phenyl)-3-(2-chlorocyclopent-2-en-1-yl)urea], the IC50 was ≤ 10 nM.

`CC1(S(=O)(=O)c2c(Cl)ccc(NC(=O)N[C@@H]3CCC=C3Cl)c2O)CC(O)C1` (stereo partly drawn) [Compound 38, (R)-1-(4-chloro-2-hydroxy-3-((3-hydroxy-1-methylcyclobutyl)sulfonyl)phenyl)-3-(2-chlorocyclopent-2-en-1-yl)urea] was tested, and the IC50 was ≤ 1 nM.

With `O=C(Nc1ccc(Cl)c(S(=O)(=O)[C@H]2C[C@H](N3CCCC3)C2)c1O)NC1C=CCC1` (stereo partly drawn) [Compound 174, 1-(4-chloro-2-hydroxy-3-((trans-3-(pyrrolidin-1-yl)cyclobutyl)sul-fonyl)phenyl)-3-(cyclopent-2-en-1-yl)urea] the IC50 was ≤ 10 nM.

For `CC1=CCCC1NC(=O)Nc1ccc(Cl)c(S(=O)(=O)N(C)C)c1O` (centres unmarked) [Compound 137, 6-chloro-2-hydroxy-N,N-dimethyl-3-(3-(2-methylcyclopent-2-en-1-yl)ureido)benzene-sulfonamide], the IC50 was ≤ 10 nM.

For `CO[C@H]1C[C@@H](S(=O)(=O)c2c(Cl)ccc(NC(=O)NC3CCC=C3C)c2O)C1` (stereo partly drawn) [Compound 148, 1-(4-chloro-2-hydroxy-3-((cis-3-methoxycyclobutyl)sulfonyl)phenyl)-3-(2-methylcyclopent-2-en-1-yl)urea], the IC50 was ≤ 10 nM.

With `COCC(C)(C)S(=O)(=O)c1c(Cl)ccc(NC(=O)NC2CCC=C2C)c1O` (centres unmarked) [Compound 156, 1-(4-chloro-2-hydroxy-3-((1-methoxy-2-methylpropan-2-yl)sulfonyl)phenyl)-3-(2-methylcyclopent-2-en-1-yl)urea] the IC50 was ≤ 10 nM.

`CC(C)(CCO)S(=O)(=O)c1c(Cl)ccc(NC(=O)N[C@@H]2CCC=C2Cl)c1O` [Compound 6, (R)-1-(4-chloro-2-hydroxy-3-((4-hydroxy-2-methylbutan-2-yl)sulfonyl)phenyl)-3-(2-chlorocyclopent-2-en-1-yl)urea] was tested, and the IC50 was ≤ 1 nM.

With `COCC(C)(C)S(=O)(=O)c1c(Cl)ccc(NC(=O)NC2CCC=C2Cl)c1O` (centres unmarked) [Compound 157, 1-(4-chloro-2-hydroxy-3-((1-methoxy-2-methylpropan-2-yl)sulfonyl)phenyl)-3-(2-chlorocyclopent-2-en-1-yl)urea] the IC50 was ≤ 10 nM.

With `CC1=CCC[C@H]1NC(=O)Nc1ccc(Cl)c(S(=O)(=O)C2(C)CC3(COC3)C2)c1O` [Compound 65, (R)-1-(4-chloro-2-hydroxy-3-((6-methyl-2-oxaspiro[3.3]heptan-6-yl)sulfonyl)phenyl)-3-(2-methylcyclopent-2-en-1-yl)urea] the IC50 was ≤ 10 nM.
